Experimental data from patent US7115707B2, “Amino acid sequences capable of facilitating penetration across a biological barrier” (Chiasma, Inc., priority 2002, dated 2006).
Where “and” joins values, the source holds several entries; their conditions need not be identical. Identical values can stand only once.

Key:
[1] = Heparin translocation: clotting time after rectal administration of penetration composition; type: in vivo, male BALB/c mice; details: for Clotting time, measured at follow times after injection: 5 min / Clotting time, measured at follow times after injection: 15 min / Clotting time, measured at follow times after injection: 30 min / Clotting time, measured at follow times after injection: 60 min / Clotting time, measured at follow times after injection: 90 min / Clotting time, measured at follow times after injection: 120 min / Clotting time, measured at follow times after injection: 150 min / Clotting time, measured at follow times after injection: 0: rectal 100 μl/mouse, heparin 10 mg/ml composition, one mouse per line; for Clotting time, measured at follow times after injection: 60 min / Clotting time, measured at follow times after injection: 90 min / Clotting time, measured at follow times after injection: 120 min / Clotting time, measured at follow times after injection: 150 min: * = clotting appeared but did not progress
Method: SEQ ID NO: 36 was hydrophobized via acylation of the free amino groups of the two lysine residues at the C-terminus of the penetrating peptide with a myristoyl. Acylation with myristoyl was achieved by incubating the peptide with myristoyl chloride in a molar ratio of 1:10, under basic pH conditions in the presence of appropriate solvents (benzyl benzoate and di-methyl formamide, with 1% bicarbonate). The hydrophobized peptide was then incorporated into the penetration composition, which further contained heparin, and the counter cation 1-butyl-3-methylimidazolium chloride (BMIC). Additional components of the penetration composition are specified in Table 5.
Four male BALB/c mice, 9–10 weeks old, were deprived of food, 18 hours prior to the experiment. The mice were anesthetized by i.p. injection of 0.05 ml of a mixture of 0.15 ml xylazine+0.85 ml of ketamin. The penetration composition was then rectally administered to the mice, 100μl/mouse, using a plastic tip covered with a lubricant. Penetration was assessed via measurement of clotting time, at different time intervals after heparin administration. Five minutes post administration the tip of the tail was cut and a 50 μl blood sample was drawn into a glass capillary. The capillary was broken at different time intervals, until clot formation was observed. This was repeated at 15, 30, 60, 90, 120 and 150 minutes post administration. The animals were subsequently sacrificed.
In similar experiments, a control peptide (SEQ ID NO:16), lacking the penetrating peptide-sequence, was similarly hydrophobized and incorporated into the penetration composition of Table 5 and then rectally administered to the mice.

[2] = Insulin translocation with HMIC as counter ion: blood glucose levels after i.p. or rectal administration (FIG. 3); type: in vivo, male BALB/c mice; details: 70 ul/mouse, 0.2 IU insulin
Method: SEQ ID NO: 36 (also called IBW-002V2) and SEQ ID NO: 16 (also called IBW-001) were hydrophobized via acylation of the free amino groups of the two lysine residues at the C-terminus of the penetrating peptides with a myristoyl. Acylation with myristoyl was achieved by incubating the peptide with myristoyl chloride in a molar ratio of 1:10, under basic pH conditions in the presence of appropriate solvents (benzyl benzoate and di-methyl formamide, with 1% bicarbonate). The hydrophobized peptides were then incorporated into the penetration composition, which further contained insulin, and the counter cation 1-hexyl-3-methylimidazolium chloride (HMIC). Additional components of the penetration composition are specified in Table 7.
Eight male BALB/c mice, 9–10 weeks old, were deprived of food, 18 hours prior to the experiment. The animals were divided into 4 groups. Each preparation was administered to 2 groups of mice either i.p. (70 ul/mouse, containing 0.2 IU insulin) or rectal (70 ul/mouse, containing 0.2 IU insulin). Blood glucose levels were measured at various time intervals post administration, in blood samples drawn from the tip of the tail. Glucose levels were plotted against time post insulin administration (See FIG. 3).

[3] = Insulin translocation with BKC as counter ion: blood glucose levels after i.p. or rectal administration (FIG. 4, Table 9); type: in vivo, male SD rats; details: rectal administration, rats, BKC counter ion (FIG. 4)
Method: SEQ ID NO: 36 (also called IBW-002V2) was hydrophobized via acylation of the free amino groups of the two lysine residues at the C-terminus of the penetrating peptide with a myristoyl. Acylation with myristoyl was achieved by incubating the peptide with myristoyl chloride in a molar ratio of 1:10, under basic pH conditions in the presence of appropriate solvents (benzyl benzoate and di-methyl formamide, with 1% bicarbonate). The hydrophobized peptide was then incorporated into the penetration composition, which further contained a lyophilizate of (1) insulin, (2) the counter cation Benzalkonium Chloride (BKC), and (3) phytic acid at a ratio of 1:0.5:0.5. Additional components of the penetration composition are specified in Table 8.
Twelve male SD rats, 160–190 gr, were deprived of food, 18 hours prior to the experiment. The animals were divided into groups. The preparations were administered as follows: Rats #1,2-rectal PBS 200 ul, rats #3,4-rectal 200 ul penetration composition as specified above without peptide (5 IU insulin), rat #5-i.p. 200 ul penetration composition with peptide (1 IU insulin), rats #6,7-rectal 200 ul penetration composition with peptide (5 IU insulin). Blood glucose levels were measured at various time intervals post administration, in blood samples drawn from the tip of the tail. Glucose levels were plotted against time post insulin administration (See FIG. 4).

| Substance | Clotting time, measured at follow times after injection: 5 min [1] | Clotting time, measured at follow times after injection: 15 min [1] | Clotting time, measured at follow times after injection: 30 min [1] | Clotting time, measured at follow times after injection: 60 min [1] | Clotting time, measured at follow times after injection: 90 min [1] | Clotting time, measured at follow times after injection: 120 min [1] | Clotting time, measured at follow times after injection: 150 min [1] | Clotting time, measured at follow times after injection: 0 [1] | blood glucose levels ([2]; i.p.) | blood glucose levels ([2]; rectal) | blood glucose levels [3] | average clotting time ([1]; rectal, heparin composition of Table 5, compared to the full conjugate of the penetrating peptide) |
| --- | --- | --- | --- | --- | --- | --- | --- | --- | --- | --- | --- | --- |
| AcMYYDITLALAGICQSARLVQQLAGGGKGGKNH2 (Ac-MYYDITLALAGICQSARLVQQLAGGGKGGK-NH2) [SEQ ID NO: 36, penetrating peptide] | 1′ (2×) and 2′ (2×) | 1.5′ and 3′ and 1′ (2×) | 1.5′ (2×) and 2′ and 3′ | 8′* and 9′* and 2.5′ and 6′ | 9′* (2×) and 7′* and 5′ | 15′* and 7′* and 3′ and 8′* | 17′* and 9′* and 4′ and 6′ | 1.5′ (2×) and 1′ and 2.5′ | dropped gradually and significantly | dropped gradually and significantly | dropped gradually and significantly | – |
| GGKGGK (Linker) [SEQ ID NO: 16, reference compound] | 1′ | 1′ | 2′ | 5′ | 4′ | 2′ | 3′ | 1′ | significant drop | No change | – | only slightly elongated |
